# Measured values from patent US20220257629A1, “COMPOSITIONS AND METHODS FOR UPREGULATION OF HUMAN FETAL HEMOGLOBIN” (THE UAB RESEARCH FOUNDATION, priority 2019, published 2022).
# Assays:
# [1] = system: human CD34+-differentiated erythroid cells; test: Isoelectric focusing gel of the samples analyzed by HPLC; assay type: cell-based; settings: idoxuridine 0.3 and 0.65 μM (FIG. 4)
# [2] = system: human CD34+-differentiated erythroid cells; test: RNAseq gene expression; assay type: cell-based
# [3] = system: human CD34+-differentiated erythroid cells; test: Western blot analysis of KLF1, BCL11A and LRF; assay type: cell-based; settings: 0.7 uM, 7 days, compared to DMSO (FIG. 5)
# Procedure: To analyze the expression of KLF1, BCL11A and LRF by Western blot, whole cell extracts were prepared from erythroid cells differentiated for seven days with DMSO or 0.7 uM of idoxuridine. Antibodies used included Actb (Santa Cruz, sc-47778 HRP, Dallas, Tex.), KLF1 (Santa Cruz, sc-14034), BCL11A (Abcam, ab19489, Cambridge, UK) and LRF (Abcam, ab175918).
# [4] = system: human CD34+-differentiated erythroid cells; test: HPLC hemoglobin analysis; assay type: cell-based; settings: 0.3 or 0.65 μM, compared to DMSO treated cells (FIG. 2)
# Procedure: (§1) Briefly, for the screen, 5×10^5 CD34^+ cells were expanded for six days in StemSpan SFEM medium (StemCell Technologies Inc., Vancouver, Canada) with SCF, IL-3, TPO and Flt-3 ligand. After expansion, 100,000 cells were distributed to each well (in a 24-well plate) and grown in SFEM medium with 2% P/S, 20 ng/ml SCF, 1 U/ml Epo, 5 ng/ml IL-3, 2 μM dexamethasone, and 1 μM β-estradiol. Individual small molecules were added to each well. Cells were differentiated for another nine days (for RNA analysis) or fourteen days (for hemoglobin analysis). The γ- and β-globin expression in each sample were analyzed by RT-PCR or HPLC.
# [5] = system: human CD34+-differentiated erythroid cells; test: Library screen, RT-PCR of γ- and β-globin expression; assay type: cell-based
# Procedure: as §1
# [6] = system: human β-globin BAC transgenic mice; test: In vivo globin gene expression by qRT-PCR; design: species or system mouse; settings: 100 mg/kg daily intraperitoneal injections for four weeks, blood, qRT-PCR (FIG. 6)
# Procedure: To test if idoxuridine can induce mouse Ey2 and human γ-globin expression in human β-BAC transgenic mice, 100 mg/kg body weight of Idoxuridine were injected intraperitoneally (IP) into mice for 4 weeks. Blood samples were obtained at the end of Idoxuridine treatment and cDNAs were synthesized. Mouse Ey2 and human γ-globin expression were analyzed by qRT-PCR.
# [7] = system: human CD34+-differentiated erythroid cells; test: FACS analysis of fetal hemoglobin expressing erythroid cells (F cells); assay type: cell-based; settings: 0.3, 0.5 or 0.7 μM, 14 days, compared to DMSO control (FIG. 1)
# Source text: For fetal hemoglobin analysis, one million erythroid cells, differentiated for 14 days with or without idoxuridine in the medium, were washed with PBS that included 0.1% BSA, and fixed in 0.05% Glutaraldehyde (Sigma, G5882, St. Louis, Mo.). The fixed cells were washed three times with PBS that included 0.1% BSA, followed by permeabilization in 1% Triton X-100 (Life Technologies, HFH-10, Carlsbad, Calif.), before immunostaining with an antibody directed against HbF (Invitrogen, MHFH04, Carlsbad, Calif.).
# [8] = human CD34+-differentiated erythroid cells
smiles,measurement,setting,value
"O=c1[nH]c(=O)n([C@H]2C[C@H](O)[C@@H](CO)O2)cc1I [Idoxuridine, idoxuridine]",HbF expression (isoelectric focusing gel),[1],upregulated
same,ε-globin gene expression,[2]; Table 1,reactivated
same,"RNAseq expression, BCL11A","[2]; gene BCL11A, idoxuridine treated cells",478.2
same,"Fold change, BCL11A","[2]; gene BCL11A, idoxuridine vs DMSO control",0.303
same,"RNAseq expression, HBB","[2]; gene HBB, idoxuridine treated cells",20938
same,"Fold change, HBB","[2]; gene HBB, idoxuridine vs DMSO control",0.2
same,"RNAseq expression, HBD","[2]; gene HBD, idoxuridine treated cells",1798
same,"Fold change, HBD","[2]; gene HBD, idoxuridine vs DMSO control",0.16
same,"RNAseq expression, HBE1","[2]; gene HBE1, idoxuridine treated cells",17051
same,"Fold change, HBE1","[2]; gene HBE1, idoxuridine vs DMSO control",560
same,"RNAseq expression, HBG1","[2]; gene HBG1, idoxuridine treated cells",18815
same,"Fold change, HBG1","[2]; gene HBG1, idoxuridine vs DMSO control",8.19
same,"RNAseq expression, HBG2","[2]; gene HBG2, idoxuridine treated cells",980
same,"Fold change, HBG2","[2]; gene HBG2, idoxuridine vs DMSO control",6
same,"RNAseq expression, SOX6","[2]; gene SOX6, idoxuridine treated cells",13
same,"Fold change, SOX6","[2]; gene SOX6, idoxuridine vs DMSO control",0.25
same,BCL11A mRNA expression,[2]; [8],decreased
same,KLF1 mRNA expression,[2]; [8],decreased
same,BCL11A expression (Western blot),[3],decreases
same,KLF1 expression (Western blot),[3],decreases
same,fetal hemoglobin (HPLC),[4],significantly increases
same,HbF expression in a drug screen,[5],potent inducers
same,HbF expression (reverse transcriptase-PCR),[5]; [8],upregulates
same,γ-globin expression,[5]; human CD34+-differentiated erythroid cells contacted with idoxuridine,significantly increased
same,human γ-globin gene expression,[6],increased
same,mouse Ey-2 gene expression,[6],increased
same,number of erythroid cells expressing fetal hemoglobin (F cells),[7],increases
"O=c1[nH]c(=O)n([C@H]2C[C@H](O)[C@@H](CO)O2)cc1C(F)(F)F [Trifluridine, trifluridine]",HbF expression in a drug screen,[5],potent inducers
same,γ-globin gene expression in the original screen,[5]; original screen,reactivated
